Results from US20140037798A1, “LIQUID NUTRITIONAL PRODUCTS COMPRISING METAL AMINO ACID CHELATES” (ABBOTT LABORATORIES, priority 2011, published 2014).

How the values were obtained:
[1] = Methionine sulfoxide concentration in nutritional emulsion, marker of reactive oxygen species generation; assay type: physicochemical; settings: copper ingredient 35 μM, retort sterilized
[2] = Vitamin B12 recovery in retort sterilized chocolate flavored nutritional emulsion (validated HPLC); settings: copper ingredient 35 μM
Method: Once prepared, the emulsions are analyzed for vitamin B12 recovery using a fully validated HPLC method to determine the amount of vitamin B12 remaining (i.e., not lost to oxidative destruction) in the nutritional emulsion.

[3] = cocoa powder 0.80% (w/w), pH 6.8 HEPES, cocoa powder:iron 40:1, 99° C. thirty minutes, 0.45 μm filtrate
Method: The visible absorbance of liquids including a mixture of cocoa powder and an iron-containing component is measured to determine the ability of various ferric salts, including ferric amino acid chelates, to decrease reactivity between the iron and the cocoa powder.
Various samples are prepared as described herein using various iron-containing components. All mixtures contain cocoa powder at 0.80% (w/w) in pH 6.8 buffer (0.10M HEPES). The control liquid is prepared without any iron-containing component. In the remaining samples, the iron components are added so that the weight ratio of cocoa powder:iron is 40:1 (w/w).

Row | Compound | Methionine sulfoxide, as mole % of total methionine [1] [%] | Vitamin B12 [2] [µg/kg] | Absorbance, Filtrate v. Blank, 535 nm [3] [mAU] | Absorbance, Filtrate v. Blank, 600 nm [3] [mAU] | Absorbance, Filtrate v. Blank, 700 nm [3] [mAU]
1 | O.O.O.O.O.O=S(=O)([O-])[O-].[Cu+2] [Control (CuSO4), copper sulfate pentahydrate, reference compound] | 18.8 | 38.5 | – | – | –
2 | NCC(=O)[O-].NCC(=O)[O-].[Cu+2] [Copper bis-glycinate chelate, copper bis-glycinate chelate] | 18.1 | 41.3 | – | – | –
3 | O=P([O-])([O-])[O-].[Fe+3] [Ferric orthophosphate, reference compound] | – | – | 579 | 237 | 65
4 | NCC(=O)[O-].NCC(=O)[O-].[Fe+2] [Ferrous bis-glycinate] | – | – | 1200 | 1040 | 567
5 | Ferric bis-glycinate | – | – | 610 | 319 | 101
6 | Ferrous gluconate | – | – | 1230 | 1100 | 607
7 | Ferrous sulfate [reference compound] | – | – | 1240 | 1150 | 688
8 | copper gluconate | 17.9 | 46.4 | – | – | –
9 | copper lysine chelate | 17.4 | 47.0 | – | – | –
